In patent publication US9062123B2, “Labelled adrenomedullin derivatives and their use for imaging and therapy” (PLUMOSCIENCE INC., priority 2004, dated 2015):
Ends that are not written are not given here.

Columns and labels:
[1] = dog, in vivo, iv
Description: All experimental procedures were performed in accordance with regulations and ethical guidelines from Canadian Council for the Care of Laboratory Animals, and received approval by the animal ethics and research committee of the Montreal Heart Institute. Mongrel dogs weighing between 20-30 kg and presenting negative Dirofilaria imitis blood test results were anesthetized by an initial intravenous dose of pentobarbital sodium (50 mg/kg). Animals were intubated and mechanically ventilated using room air. Cutaneous electrocardiographic leads were installed, and 18F cathlon with three-way was installed on both saphenous vein for 0.9% sodium chloride perfusion, radiolabelled injection and blood collection. A right arterial femoral catheter was also inserted using the Seldinger technique for continuous blood pressure monitoring.
Purified and buffered ^99mTc-DTPA-hAM1-52 samples were injected in right saphenous vein (n=6). A series of 2 mL blood samples were collected 1 min after the initial AM injection for a 10-min period, then repeated every 5 min for the following 50-min period. Blood samples were taken via left saphenous vein. […] The blood samples were then placed in an automatic gamma counter (model 1272 Clinigamma, LKB Wallac, Finland) to determine ^99mTc activity.
Plasma kinetics of ^99mTc-DTPA-hAM1-52 was fitted using a two-phase exponential decay equation with GraphPad Prism version 4.0 software. Time effects on each organ biodistribution were analyzed by two-way repeated measures ANOVA followed, when a significant interaction was found, by Bonferroni/Dunn t-test. Multiple organs biodistribution comparison at 30 minutes was performed by one-way ANOVA followed, when a significant interaction was found, by Bonferroni/Dunn t-test. A P values of <0.05 was considered significant. All results are reported as mean±S.D.

[2] = dog, in vivo
Description: Multi-organic biodistribution of ^99mTc-DTPA-hAM1-52 was evaluated with an Anger camera (420/550 Mobile Radioisotope Gamma Camera; Technicare, Solon, Ohio, USA) equipped with on board computer, and a low-energy parallel-hole collimator (model 14S22014). Following intravenous injection of ^99mTc-DTPA-hAM1-52, dynamic acquisition of the lungs, heart, liver and kidneys was recorded for a 30-min period (one frame/sec during the first minute, then one frame/min for the remaining time). Static acquisitions was also recorded for whole individual organs, including lungs, kidneys, liver, heart, bladder, gallbladder and muzzle, at 30, 60, 120, 240 minutes after initial injection. These recordings were performed both in ventral and dorsal positions.
Dynamic and static acquisitions were evaluated by using Matlab version 7.01 image analysis tools software. The ^99mTc total count, ^99mTc mean count, and region of interest (ROI) size were calculated for each organ. Data correction was applied for 1) radioactive decay, 2) surgical table attenuation (dorsal images only), 3) geometric mean, and 4) organ's attenuation based on transmission factor.

[3] = Biodistribution / organ retention of 125I-rAM(1-50) in rats, with and without antagonists; format: in vivo, rat
Description: The animals were then killed and the lungs, liver, kidneys (en bloc with the adrenal glands) and heart were removed and gravity drained. […] Results are expressed as a percentage of total radioactivity injected.
The drugs were given by either intraarterial (n=10 in each group) or intravenous (n=10 in each group) injection 5 min before the ^125I-rAM(1-50) bolus. Plasma samples and tissues were treated as described above.

[4] = biological target: AM1 (CRLR+RAMP2) receptor, lungs of dogs; assay: Displacement of labelled human adrenomedullin in the lungs of dogs; format: binding, dog; conditions: displacement of labelled hAM
Chain of AM1 (CRLR+RAMP2) receptor, lungs of dogs (A0A8I3NWR4 25-462): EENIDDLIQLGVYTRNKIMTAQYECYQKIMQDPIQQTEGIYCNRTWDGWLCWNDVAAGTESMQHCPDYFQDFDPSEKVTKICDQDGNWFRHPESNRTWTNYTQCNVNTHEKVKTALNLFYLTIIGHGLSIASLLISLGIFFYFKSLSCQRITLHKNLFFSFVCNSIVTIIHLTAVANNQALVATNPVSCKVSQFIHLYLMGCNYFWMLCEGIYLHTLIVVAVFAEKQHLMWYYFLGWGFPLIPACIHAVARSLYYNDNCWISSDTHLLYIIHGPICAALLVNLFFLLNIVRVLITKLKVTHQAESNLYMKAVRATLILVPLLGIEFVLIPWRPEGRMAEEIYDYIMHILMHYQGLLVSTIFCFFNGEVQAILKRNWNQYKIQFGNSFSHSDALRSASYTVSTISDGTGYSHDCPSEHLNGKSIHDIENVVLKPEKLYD

[5] = In vivo single-pass pulmonary extraction of 125I-rAM(1-50) in dogs (indicator-dilution); set-up: species or system dog; conditions: for single-pass pulmonary extraction of 125I-rAM(1-50) after administration of the substance: dogs, intravenous bolus of 100 nmol, 5 min before
Description: Dogs were anaesthetized and prepared as described in detail in reference, which is hereby incorporated by reference. A catheter was inserted into the carotid artery and positioned just above the aortic valve. This catheter was connected to a peristaltic pump for automated blood withdrawal. Another catheter was placed into the jugular vein and positioned in the right ventricular outflow tract to allow bolus injection of the study tracers. A bolus was prepared by adding 3.3 μCi of 125I-rAM(1-50) (2.9 pmol) to 3 ml of Evans-Blue-dye labelled albumin and 0.9% saline to give a final volume of 6 ml. The mixture was separated into three equal parts for the two successive experiments in each animal and to realize dilution-curve standards. A baseline single-bolus indicator-dilution experiment was performed.
The collected samples were processed and indicator-dilution curves constructed and analyzed as described in previously cited reference 13. Cardiac output and mean tracer AM extraction during the pulmonary transit time were computed from the curves. Mean tracer extraction corresponded to the difference between the areas of the outflow curve of the vascular reference (albumin) and that of the extracted tracer (AM). Recirculation of the tracers apparent in the terminal portion of the curves was removed by linear extrapolation of the semi-logarithmic down slopes.

[6] = Plasma kinetics of 125I-rAM(1-50) after single intravenous injection in rats; format: in vivo, rat; conditions: given 5 min before the 125I-rAM(1-50) bolus
Description: All experimental procedures were performed in accordance with the regulations and ethical guidelines from Canadian Council for the Care of Laboratory Animals, and received approval by the Animal Ethics and Research Committee of the Montreal Heart Institute. Male Sprague-Dawley rats (Charles River), weighing between 400-450 g, were anaesthetized by an initial intramuscular dose of xylazine (10 mg/kg of body weight) and ketamine (50 mg/kg of body weight), followed by an intra-peritoneal injection of heparin (2000 units; Sigma). Catheters were inserted into the right carotid artery and jugular vein. Heart rate and systemic blood pressure were monitored continuously. […] Venous and arterial blood samples (3 ml) were collected and centrifuged (1875 g, 15 min, 4° C.) and the plasma saved for subsequent measurement of irAM (immunoreactive AM). A similar amount of saline was infused into the animals to prevent hypovolaemia.
The animals were then killed and the lungs, liver, kidneys (en bloc with the adrenal glands) and heart were removed and gravity drained. […] Results are expressed as a percentage of total radioactivity injected. […]
Multiple group comparisons were performed by factorial ANOVA, followed, when a significant interaction was found, by the Bonferroni/Dunn t test. […] In the canine experiments, the effect of drugs on AM extraction was analyzed by two-tailed paired Student's t tests. […]

## CC[C@H](C)[C@H](NC(=O)[C@H](CCC(N)=O)NC(=O)[C@H](Cc1c[nH]cn1)NC(=O)[C@H](C)NC(=O)[C@H](CC(C)C)NC(=O)[C@H](CCCCN)NC(=O)[C@H](CCC(N)=O)NC(=O)[C@@H](NC(=O)[C@@H](NC(=O)[C@@H]1CSSC[C@H](NC(=O)CNC(=O)[C@H](Cc2ccccc2)NC(=O)[C@H](CO)NC(=O)[C@H](CCCNC(=N)N)NC(=O)[C@H](CC(C)C)NC(=O)CNC(=O)[C@H](CCC(N)=O)NC(=O)[C@H](Cc2ccccc2)NC(=O)[C@H](CC(N)=O)NC(=O)[C@H](CC(N)=O)NC(=O)[C@H](CCSC)NC(=O)[C@H](CO)NC(=O)[C@H](CCC(N)=O)NC(=O)[C@H](CCCNC(=N)N)NC(=O)[C@H](Cc2ccc(O)cc2)NC(=O)CN(CCN(CCN(CC(=O)O)CC(=O)O)CC(=O)O)CC(=O)O)C(=O)N[C@@H](CCCNC(=N)N)C(=O)N[C@@H](Cc2ccccc2)C(=O)NCC(=O)N[C@@H]([C@@H](C)O)C(=O)N1)[C@@H](C)O)C(C)C)C(=O)N[C@@H](Cc1ccc(O)cc1)C(=O)N[C@@H](CCC(N)=O)C(=O)N[C@@H](Cc1ccccc1)C(=O)N[C@H](C(=O)N[C@@H](CC(=O)O)C(=O)N[C@@H](CCCCN)C(=O)N[C@@H](CC(=O)O)C(=O)N[C@@H](CCCCN)C(=O)N[C@@H](CC(=O)O)C(=O)N[C@@H](CC(N)=O)C(=O)N[C@H](C(=O)N[C@@H](C)C(=O)N1CCC[C@H]1C(=O)N[C@@H](CCCNC(=N)N)C(=O)N[C@@H](CO)C(=O)N[C@@H](CCCCN)C(=O)N[C@H](C(=O)N[C@@H](CO)C(=O)N1CCC[C@H]1C(=O)N[C@@H](CCC(N)=O)C(=O)NCC(=O)N[C@@H](Cc1ccc(O)cc1)C(N)=O)[C@@H](C)CC)C(C)C)[C@@H](C)O [^99mTc-DTPA-hAM1-52, metal not drawn]
[1]
  distribution half-life: 1.75 min
  elimination half-life: 42.14 min
  ratio of rate constant for exchange between central and peripheral compartments (k1-2/k2-1): 24.09
[2]
  bladder retention, % of the injected dose: 5.67±1.75%
  dynamic multi-organic biodistribution: significant pulmonary first pass retention
  gallbladder retention, % of the injected dose: 0.96±0.38%
  heart retention, % of the injected dose: 7.17±2.04%
  kidneys retention, % of the injected dose: 19.17±3.06%
  liver retention, % of the injected dose: 11.67±1.37%
  lung retention, % of the injected dose: 15.83±2.32%
  lungs retention, % of the injected dose: 27.00±2.76%
  muzzle retention, % of the injected dose: 1.17±0.41%

## hAM(22-52): C-terminal human AM fragment that blocks the specific AM receptor
[3]; given before the tracer
  effect on activity of 125I-rAM(1-50) retained in kidneys: elevated the retained activity
  effect on biodistribution of 125I-rAM(1-50): did not significantly modify this distribution
[3]; prior administration
  effect on pulmonary first-pass retention of 125I-rAM(1-50): not affected
[4]
  IC50: 810 nM
[5]
  single-pass pulmonary extraction of 125I-rAM(1-50) after administration of the substance: 31.4±3.3%
[6]
  effect on plasma kinetics of radiolabelled rAM(1-50): did not modify plasma kinetics

## hAM(26-52): human adrenomedullin fragment, amino acids 26-52 (LAHQIYQFTDKDKDNVAPRSKISPQGY)
[4]
  IC50: ≥ 1000 nM

## hAM(40-52): human adrenomedullin fragment, amino acids 40-52 (NVAPRSKISPQGY)
[4]
  IC50: ≥ 10000 nM

## unlabelled rAM(1-50): unlabelled rat adrenomedullin (1-50), American Peptide (YRQSMNQGSRSTGCRFGTCTMQKLAHQIYQFTDKDKDGMAPRNKISPQGY; ends and bridges not checked; cysteine pairing not given here)
[3]; given before the tracer
  effect on amount of 125I-rAM(1-50) retained by the liver, kidneys and heart: significantly increased
  effect on lung activity of 125I-rAM(1-50): important reduction in lung activity
[5]
  single-pass pulmonary extraction of 125I-rAM(1-50) after administration of the substance: 21.9±2.4%
[5]; same dog, second experiment
  mean extraction of 125I-rAM(1-50) after injection of the substance: 12%
[6]
  effect on plasma kinetics of radiolabelled rAM(1-50): did not modify plasma kinetics
